# Experimental data taken from PubChem BioAssay (NCI).
# Values joined by “and” are separate entries in the source; they are usually repeats but may differ in a detail not shown here. Equal entries are not always repeated.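 Cells were grown in 96-well plates and exposed to each compound for 48 hours at five concentrations; endpoints were interpolated linearly between bracketing concentrations, or set to the highest concentration if not reached. Abbreviation: GI50, concentration required for 50% inhibition of growth. TGI: total growth inhibition.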
# What was measured:
# Assay in all cases: NCI tumour cell line growth inhibition, 48 h
# [1] = tested on: NCI-H460 lung
# [2] = tested on: TK-10 renal
# [3] = tested on: SK-MEL-5 melanoma
# [4] = tested on: OVCAR-4 ovarian
# [5] = tested on: 786-0 renal
# [6] = tested on: OVCAR-3 ovarian
# [7] = tested on: SF-539 CNS
# [8] = tested on: OVCAR-5 ovarian
# [9] = tested on: NCI/ADR-RES ovarian
# [10] = tested on: PC-3 prostate
Compound,GI50 [1],TGI [1],GI50 [2],TGI [2],GI50 [3],TGI [3],GI50 [4],TGI [4],GI50 [5],TGI [5],GI50 [6],TGI [6],GI50 [7],TGI [7],GI50 [8],TGI [8],GI50 [9],TGI [9],GI50 [10],TGI [10]
CCC[CH2][Sn]([CH2]CCC)([O]C(=O)c1cc(F)cc(F)c1)[O][Sn]([CH2]CCC)([CH2]CCC)[O]C(=O)c1cc(F)cc(F)c1,2.67 µM,6.74 µM,1.41 µM,2.72 µM,1.46 µM,2.77 µM,2.04 µM,3.51 µM,1.27 µM,2.53 µM,1.52 µM,2.86 µM,1.34 µM,2.8 µM,1.92 µM,3.43 µM,,,,
OC1CCC[C@@H]1Sc1ccccc1 (stereo not given in full),,> 100 µM,,> 100 µM,,> 100 µM,,> 100 µM,,> 100 µM,,> 100 µM,,> 100 µM,,,,,,
CCOC(=O)c1c2cccccc2n2c(=O)cc(C)nc12,,> 100 µM,,> 100 µM,,,,> 100 µM,,> 100 µM,,> 100 µM,,> 100 µM,,> 100 µM,,,,
O=C(O)CCSC(=S)Nc1cccc(F)c1,,> 100 µM,,> 100 µM,,43.5 µM,,> 100 µM,,> 100 µM,,> 100 µM,,> 100 µM,,> 100 µM,,,,
O=C(O)CCSC(=O)Nc1ccccc1Cl,,> 100 µM,,> 100 µM,,> 100 µM,,> 100 µM,,> 100 µM,,> 100 µM,,> 100 µM,,> 100 µM,,,,
COC(=O)C(=O)C(C(=O)C=C(C)C)C(=O)C(=O)Nc1nc2ccc([N+](=O)[O-])cc2s1 (stereo not given),,> 100 µM,,> 100 µM,,> 100 µM,,> 100 µM,,> 100 µM,,> 100 µM,,> 100 µM,,> 100 µM,,,,
Cc1ccc(NC(=O)CC/C(CC(=O)C(C)(C)C)=N\Nc2ccc([N+](=O)[O-])cc2[N+](=O)[O-])cc1C,,> 100 µM,,> 100 µM,,,,,,> 100 µM,,,,> 100 µM,,> 100 µM,,,,
COc1cc(/C=C\c2ccc(OC(C)=O)cc2)cc(OC)c1OC,,> 100 µM,,,,,,> 100 µM,,> 100 µM,,> 100 µM,,,,> 100 µM,,,,
COc1cc(CC(C(=O)O)C(=O)O)c(OC)cc1CC(C(=O)O)C(=O)O,,> 100 µM,,> 100 µM,,> 100 µM,,> 100 µM,,> 100 µM,,> 100 µM,,> 100 µM,,> 100 µM,,,,
CC1=C2[C@H](c3ccccc3)C3C=CC2(c2ccccc23)N(C(=O)C(c2ccccc2)c2ccccc2)C1=O (stereo not given in full),,> 100 µM,,> 100 µM,,> 100 µM,,> 100 µM,,> 100 µM,,> 100 µM,,> 100 µM,,> 100 µM,,,,
COC(=O)C(C(=O)C(=O)Nc1ccc(OC)cc1[N+](=O)[O-])c1nc2cc(C)c(C)cc2[nH]c1=O (stereo not given),,> 100 µM,,> 100 µM,,> 100 µM,,> 100 µM,,> 100 µM,,> 100 µM,,> 100 µM,,,,,,
COCOCC[C@@H]1CC=CC(NC(=O)OCc2ccccc2)C1/C=C/C(=O)CCC1OCCO1 (stereo not given in full),,> 100 µM,,> 100 µM,,> 100 µM,,> 74.4 µM,,> 100 µM,,> 76.1 µM,,> 63 µM,,> 100 µM,,,,
C/C(CCn1[nH]c(=O)ccc1=O)=N\Nc1ccc([N+](=O)[O-])cc1[N+](=O)[O-],,> 100 µM,,> 100 µM,,> 100 µM,,> 100 µM,,> 100 µM,,> 100 µM,,> 100 µM,,> 100 µM,,,,
CCCCCCCCCOC(=S)NCCCCC,,64 µM,,56.4 µM,,40.7 µM,,> 100 µM,,> 100 µM,,,,41.3 µM,,,,,,
CCOC(=O)NC(=O)c1cn(CCN2CCNCC2)c(=O)[nH]c1=O,,> 100 µM,,> 100 µM,,> 100 µM,,> 100 µM,,> 100 µM,,> 100 µM,,> 100 µM,,> 100 µM,,,,
COc1ccc(/C=c2/sc3n(c2=O)NC(c2ccc(Cl)cc2)NN=3)cc1 (stereo not given),,> 100 µM,,> 100 µM,,> 100 µM,,> 100 µM,,> 100 µM,,> 100 µM,,> 100 µM,,> 100 µM,,,,
CC(=O)O/N=C(Cl)/C(Cl)=N/OC(C)=O,,> 100 µM,,> 100 µM,,,,> 100 µM,,> 100 µM,,,,> 100 µM,,> 100 µM,,,,

Compound,GI50 [1],TGI [1],GI50 [2],TGI [2],GI50 [3],TGI [3],GI50 [4],TGI [4],GI50 [5],TGI [5],GI50 [6],TGI [6],GI50 [7],TGI [7],GI50 [8],TGI [8],GI50 [9],TGI [9],GI50 [10],TGI [10]
Cn1nc(-c2ccccc2)c(C(=O)/C=C/c2ccc(F)cc2)c(N2CCOCC2)c1=O,,78.2 µM,,97.5 µM,,29.3 µM,,,,36.2 µM,,,,36.3 µM,,,,,,
COC(=O)C1=C(O)[C@H](C(=O)OC)[C@]2(O)[C@@H](C(=O)OC)[C@H]1C[C@@H](c1ccc(OC(=O)/C=C/c3ccco3)cc1)[C@@H]2C(=O)OC,33 µM,> 100 µM,47.1 µM,> 100 µM,27.1 µM,94.4 µM,,,11.8 µM,30.6 µM,27.6 µM,82.5 µM,,,19.1 µM,43.3 µM,12.3 µM,32.2 µM,21.5 µM,88.3 µM
COc1cc2c(cc1OC)c1c(OC)c(OC)cc3c1c1c2sc(=S)n1CC3,,> 100 µM,,> 100 µM,,> 100 µM,,> 100 µM,,35.1 µM,,> 100 µM,,> 100 µM,,> 100 µM,,,,
N#Cc1cc(NC(=O)c2ccccc2)c(=O)n2c1[nH]c1ccccc12,,> 100 µM,,89.2 µM,,34.2 µM,,> 100 µM,,> 100 µM,,80.7 µM,,84.4 µM,,,,,,
COc1ccc(NC(=O)CCc2cc(C(C)(C)C)n[nH]2)cc1,,> 100 µM,,> 100 µM,,> 100 µM,,,,> 100 µM,,> 100 µM,,> 100 µM,,> 100 µM,,,,
C=C1C(=O)OC2C1C(OC(=O)/C(C)=C\C)CC1(CO1)C1C(O)C=C(C)C21O (stereo not given),,29.4 µM,,9.35 µM,,17.7 µM,,20.7 µM,,8.5 µM,,11.3 µM,,8.06 µM,,34.3 µM,,,,
Cc1cc(C)nc(NS(=O)(=O)c2ccc(NC(=O)c3ccc(Cl)c4c(Nc5ccc(S(=O)(=O)N=C(N)N)cc5)c5ccccc5nc34)cc2)n1,,,,> 100 µM,,> 100 µM,,> 100 µM,,96.1 µM,,> 100 µM,,> 100 µM,,> 100 µM,,,,
O=C(Nc1cccnc1)c1ccc2ccc3ccc(C(=O)Nc4cccnc4)nc3c2n1,0.0537 µM,,,> 100 µM,0.271 µM,> 100 µM,0.37 µM,> 100 µM,0.206 µM,> 100 µM,0.242 µM,> 100 µM,,,,> 100 µM,> 100 µM,> 100 µM,0.158 µM,> 100 µM
Cc1ccc(/C=C(\C#N)c2ccccc2)cc1,,> 100 µM,,> 100 µM,,> 100 µM,,> 100 µM,,> 100 µM,,> 100 µM,,> 100 µM,,> 100 µM,,,,
NNC(=O)N/N=C1\C(=O)N(c2nccs2)C(=O)C(=O)C1c1nc2ccccc2s1 (stereo not given),,> 100 µM,,> 100 µM,,,,> 100 µM,,> 100 µM,,> 100 µM,,> 100 µM,,> 100 µM,,,,
Cc1nc(Nc2ccccc2)sc1C(=O)CC(=O)C(=O)NC12CC3CC(CC(C3)C1)C2,,> 100 µM,,> 100 µM,,> 100 µM,,> 100 µM,,> 100 µM,,> 100 µM,,> 100 µM,,> 100 µM,,,,
COc1ccc(/C=C\c2cc(OC)c(OC)c(OC)c2)c(O)c1O,0.106 µM,9.22 µM and 4.42 µM,,55.8 µM,< 0.015 µM,,0.959 µM,17 µM and 63.5 µM,,16.3 µM,0.0695 µM and 0.0832 µM,6.47 µM and 0.77 µM,< 0.0264 µM and 0.05 µM,0.0821 µM and 0.2 µM,43.7 µM,51.8 µM and 96.4 µM,,,,36.1 µM
CN(C)CCNC(=O)c1cccc2ncc(-c3ccccc3)nc12,,19.6 µM,,34.7 µM,,24.1 µM,,26.7 µM,,> 100 µM,,66.8 µM,,16.8 µM,,30.5 µM,,,,
CCCCCCCCCCCCCC(=O)OCC1OC(n2cc(F)c(=O)[nH]c2=O)C(N)C(OC(=O)CCCCCCCCCCCCC)C1O (stereo not given),,> 100 µM,,> 100 µM,,> 100 µM,,> 100 µM,,> 100 µM,,> 100 µM,,> 100 µM,,,,,,
O=C(NN1C(=O)CSC12CCCC2)C(O)c1ccccc1 (stereo not given),> 100 µM,> 100 µM,> 100 µM,> 100 µM,> 100 µM,> 100 µM,> 100 µM,> 100 µM,> 100 µM,> 100 µM,> 100 µM,> 100 µM,> 100 µM,> 100 µM,> 100 µM,> 100 µM,,,> 100 µM,> 100 µM
CN(C)CCC1(C2=CCCC2)CC/C(=C\c2ccccc2Cl)C1=O (stereo not given),,31 µM,,33.5 µM,,26.7 µM,,25.8 µM,,25.7 µM,,28.9 µM,,28.9 µM,,29.1 µM,,,,
CCOC(=O)C1SC(=Nc2ccc(Cl)cc2C)N=C1C (stereo not given),,54.2 µM,,65.2 µM,,29.9 µM,,56.2 µM,,32.6 µM,,48.2 µM,,34.5 µM,,45.9 µM,,,,
